Laboratory results: patent publication US8192962B2, “Processes for detecting toxic substances” (Daikin Industries, Ltd., priority 2001, dated 2012)

System: Unknown protein yeast genes
Assay: DNA chip mRNA expression in yeast, unknown protein yeast genes (Table 1)
Assay type: cell-based, Saccharomyces cerevisiae S288C
How it was run: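 Whole-genome yeast DNA chip hybridization (65° C., >12 h) of Cy-labeled cDNA from S288C cells exposed 2 h at 25° C. to a sub-lethal toxicant dose in YPD; value is intensity relative to chemical-free control.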

Measured: The level of expressed mRNA in the presence of chemical substance/The level of expressed mRNA in the absence of chemical substance

CCCCCCCCCCCCOS(=O)(=O)[O-].[Na+] [(18), sodium lauryl sulfate]
3.7: yeast gene YGL053W, incubated two hours with chemical substance
1.5: yeast gene YDR511W, incubated two hours with chemical substance | yeast gene YJL057C, incubated two hours with chemical substance | yeast gene YJL066C, incubated two hours with chemical substance | yeast gene YOR197W, incubated two hours with chemical substance
0.3: yeast gene YJL082W, incubated two hours with chemical substance
1.3: yeast gene YDL222C, incubated two hours with chemical substance | yeast gene YDR330W, incubated two hours with chemical substance | yeast gene YDR411C, incubated two hours with chemical substance | yeast gene YEL001C, incubated two hours with chemical substance | yeast gene YGR221C, incubated two hours with chemical substance | yeast gene YKL153W, incubated two hours with chemical substance | yeast gene YKR091W, incubated two hours with chemical substance | yeast gene YML117W, incubated two hours with chemical substance | yeast gene YNL074C, incubated two hours with chemical substance
2.9: yeast gene YJL171C, incubated two hours with chemical substance
1.6: yeast gene YAL053W, incubated two hours with chemical substance | yeast gene YER079W, incubated two hours with chemical substance | yeast gene YFL010C, incubated two hours with chemical substance | yeast gene YGR130C, incubated two hours with chemical substance | yeast gene YIL087C, incubated two hours with chemical substance | yeast gene YKL195W, incubated two hours with chemical substance | yeast gene YNL092W, incubated two hours with chemical substance | yeast gene YNL305C, incubated two hours with chemical substance
3.2: yeast gene YOL083W, incubated two hours with chemical substance
2.4: yeast gene YDR391C, incubated two hours with chemical substance | yeast gene YJL151C, incubated two hours with chemical substance
2.7: yeast gene YDL204W, incubated two hours with chemical substance | yeast gene YDR533C | yeast gene YJR008W, incubated two hours with chemical substance | yeast gene YPL087W, incubated two hours with chemical substance
2.8: yeast gene YDL072C, incubated two hours with chemical substance | yeast gene YMR090W | yeast gene YMR102C, incubated two hours with chemical substance | yeast gene YMR315W | yeast gene YNL144C | yeast gene YOR019W, incubated two hours with chemical substance
1.9: yeast gene YNL156C, incubated two hours with chemical substance | yeast gene YPL206C, incubated two hours with chemical substance
0.9: yeast gene YDR545W, incubated two hours with chemical substance | yeast gene YHR199C, incubated two hours with chemical substance | yeast gene YJR054W, incubated two hours with chemical substance | yeast gene YKL071W | yeast gene YLR194C, incubated two hours with chemical substance | yeast gene YNL281W, incubated two hours with chemical substance | yeast gene YOL036W, incubated two hours with chemical substance | yeast gene YOL131W, incubated two hours with chemical substance | yeast gene YOL162W, incubated two hours with chemical substance | yeast gene YPL222W, incubated two hours with chemical substance
1.1: yeast gene YGR101W, incubated two hours with chemical substance | yeast gene YIL041W, incubated two hours with chemical substance | yeast gene YLR054C, incubated two hours with chemical substance | yeast gene YLR350W, incubated two hours with chemical substance | yeast gene YLR460C | yeast gene YPR023C, incubated two hours with chemical substance
2.3: yeast gene YPL196W, incubated two hours with chemical substance
6.4: yeast gene YMR316W, incubated two hours with chemical substance
2.6: yeast gene YGL037C, incubated two hours with chemical substance | yeast gene YHR209W | yeast gene YNL115C, incubated two hours with chemical substance
2.1: yeast gene YER035W, incubated two hours with chemical substance | yeast gene YGR110W | yeast gene YJL161W, incubated two hours with chemical substance | yeast gene YMR191W, incubated two hours with chemical substance
1.7: yeast gene YJL152W, incubated two hours with chemical substance | yeast gene YMR180C, incubated two hours with chemical substance
1.8: yeast gene YKL151C, incubated two hours with chemical substance | yeast gene YLR152C, incubated two hours with chemical substance | yeast gene YMR097C, incubated two hours with chemical substance | yeast gene YOL032W, incubated two hours with chemical substance
2.2: yeast gene YOL150C
3.5: yeast gene YGL121C
1.0: yeast gene YBL048W | yeast gene YGL199C, incubated two hours with chemical substance | yeast gene YIL023C, incubated two hours with chemical substance | yeast gene YKL086W, incubated two hours with chemical substance | yeast gene YMR067C, incubated two hours with chemical substance | yeast gene YMR095C, incubated two hours with chemical substance | yeast gene YNL234W, incubated two hours with chemical substance | yeast gene YNR068C, incubated two hours with chemical substance | yeast gene YOL047C, incubated two hours with chemical substance
1.2: yeast gene YER004W, incubated two hours with chemical substance | yeast gene YER158C, incubated two hours with chemical substance | yeast gene YER163C, incubated two hours with chemical substance | yeast gene YER175C, incubated two hours with chemical substance | yeast gene YGL047W, incubated two hours with chemical substance | yeast gene YGR154C, incubated two hours with chemical substance | yeast gene YLR324W, incubated two hours with chemical substance
0.8: yeast gene YER106W, incubated two hours with chemical substance | yeast gene YFL006W, incubated two hours with chemical substance | yeast gene YFL024C | yeast gene YFL032W, incubated two hours with chemical substance
8.1: yeast gene YMR107W, incubated two hours with chemical substance
1.4: yeast gene YBL107C | yeast gene YLR387C, incubated two hours with chemical substance | yeast gene YOL117W, incubated two hours with chemical substance | yeast gene YPR151C, incubated two hours with chemical substance
3.0: yeast gene YLR149C, incubated two hours with chemical substance
3.4: yeast gene YHR054C | yeast gene YMR295C, incubated two hours with chemical substance | yeast gene YNL044W, incubated two hours with chemical substance
2.0: yeast gene YMR184W, incubated two hours with chemical substance | yeast gene YOL071W, incubated two hours with chemical substance
7.1: yeast gene YHR138C, incubated two hours with chemical substance
4.4: yeast gene YDL110C | yeast gene YGR243W
2.5: yeast gene YMR009W, incubated two hours with chemical substance | yeast gene YOL082W, incubated two hours with chemical substance
